One test concerns HA-YY1. Kind of test: Co-IP of Flag-EZH2 wt/mutants with HA-YY1. The test is classed as binding. Conditions: co-IP, Flag-tagged EZH2 and HA-YY1. From the text:
(§1) HA-tagged expression vectors of wild-type (wt) and mutant YY1 were constructed by amplifying and subcloning the corresponding fragments of the YY1 coding region into the pcDNA3 vector. To generate EZH2 mutants, different regions of its coding sequence (1–251, 252–384, 385–618, 619–751, 385–465, 465–545, 545–618, 465–492, and 465–519) were amplified and subcloned into pGEX-4T-1 and pSL4-3×Flag plasmids to construct vectors expressing recombinant GST-EZH2 and 3×Flag-EZH2 mutants, respectively. To generate vectors expressing 3×Flag-YPB, -OPB, and -Cont (with a scrambled sequence of […]) peptides, their coding sequences were individually subcloned into a lentiviral vector pSL4 using the CMV promoter to drive the expression of 3×Flag-YPB-2A1-EGFP, 3×Flag-OPB-2A1-EGFP, and 3×Flag-Cont-2A1-EGFP. […] Two shRNAs against PTENP1 (shPTENP1-1 and shPTENP1-2, with target sequences of […] and […], respectively), and one control shRNA (with a scrambled target sequence of […]) driven by the U6 promoter were generated in a lentiviral vector with a puromycin selection marker as we previously described. In addition, we also generated lentiviruses expressing two shRNAs (shYY1-1 and shYY1-2, with target sequences of […] and […], respectively), and two EZH2 (shEZH2-1 and shEZH2-2, with target sequences of […] and […]-[…], respectively).
Immunoprecipitations were performed as described previously. Cells were harvested and lysed in cell lysis buffer (50 mM Tris⋅HCl, pH 7.5, 150 mM NaCl, 1% Nonidet P-40, 0.5% sodium deoxycholate, and 1% protease inhibitor cocktails, Sigma-Aldrich). […] In Western blot studies, protein concentrations of samples were determined using the Bradford protein method, and 20 μg of proteins for each sample were separated by SDS-PAGE followed by transfer to polyvinylidene difluoride (PVDF) membranes. […]
Figure 1 Identification of YY1 binding site on EZH2 protein. […] The samples were analyzed by Western blot using EZH2 and YY1 antibodies as indicated. […]

Test [1] concerns breast cancer cells (MCF-7, MDA-MB-231, MDA-MB-453). Kind of test: Annexin V-FITC/PI apoptosis, breast cancer cells together. Conditions: peptides 30 μM (no FITC), tamoxifen 15 µM, 48 h; vs Cont. The test is classed as cell-based. On the procedure:
The cells were collected by trypsinization and washed twice by ice-cold PBS, followed by Annexin V-FITC and propidium iodide (PI) staining for 10 min using the reagents in an Annexin V-FITC Apoptosis Detection Kit (Vazyme Biotech Co. Ltd., Nanjing, China). The ratios of apoptotic cells were evaluated using flow cytometry (AccuriC6, BD Biosciences, San Jose, CA, USA).

A further test deals with His×6-YY1 (Homo sapiens, UniProt P25490). The experiment in a line: GST pull-down of His×6-YY1 by GST-EZH2 mutants. The test is classed as binding. Conditions: 1.0 µg His×6-YY1, 4 h.
Sequence of His×6-YY1 (P25490 whole entry): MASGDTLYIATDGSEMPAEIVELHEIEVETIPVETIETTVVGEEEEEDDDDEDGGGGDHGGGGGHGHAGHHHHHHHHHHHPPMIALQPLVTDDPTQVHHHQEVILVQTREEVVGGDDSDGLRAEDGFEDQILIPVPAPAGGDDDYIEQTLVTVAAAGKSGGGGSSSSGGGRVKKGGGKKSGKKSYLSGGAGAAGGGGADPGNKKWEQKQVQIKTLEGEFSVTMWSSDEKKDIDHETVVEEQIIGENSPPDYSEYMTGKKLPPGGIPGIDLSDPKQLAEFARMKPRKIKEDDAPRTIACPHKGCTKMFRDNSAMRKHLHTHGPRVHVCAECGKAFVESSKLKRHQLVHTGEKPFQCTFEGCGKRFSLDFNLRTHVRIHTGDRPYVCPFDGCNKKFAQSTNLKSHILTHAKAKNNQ
From the text: as §1
The GST fusion protein expressed in E. coli was lysed with the binding buffer (20 mM Tris⋅HCl, pH 7.5, 150 mM NaCl, 0.1% Nonidet P-40, 1 mM dithiothreitol, 10% glycerol, 1 mM EDTA, 2.5 mM MgCl2, and 1 µg/mL leupeptin) for 30 min at 4 °C. Glutathione-Sepharose beads (Thermo Fisher Scientific) were incubated with bacterial lysates containing expressed recombinant GST-EZH2 mutant proteins for 4 h at 4 °C. After extensive washing of the beads, 1.0 µg of purified His×6-YY1 was added, and the samples were incubated for another 4 h. The washed beads with bound proteins were resuspended in an SDS-containing sample buffer and analyzed by SDS-PAGE.

For the molecule “Flag-EZH2 wt: Flag-tagged wild-type EZH2”, in the test with HA-YY1, the “interaction with HA-YY1 in co-IP” value is “could bring down HA-YY1”.

With `CC/C(=C(\c1ccccc1)c1ccc(OCCN(C)C)cc1)c1ccccc1` [tamoxifen], the “pro-apoptotic portions of breast cancer cells” value in test [1] was “could significantly increase the pro-apoptotic portions”. Consider “(385–618): Flag-tagged EZH2 region 385–618”, for which the “interaction with HA-YY1 in co-IP” value with HA-YY1 is listed as “could bring down HA-YY1”. For “GST-EZH2 (385–618): GST fusion of EZH2 residues 385–618”, the “interaction with His×6-YY1 in GST pull-down” value with His×6-YY1 is “could interact with His×6-YY1”. Same read-out and setting: the same measure for “GST-EZH2 (465–519): GST fusion of EZH2 residues 465–519”: “could interact with His×6-YY1”.

For the molecule “EZH2 (465–545): Flag-tagged EZH2 mutant 465–545”, the “interaction with HA-YY1 in co-IP” value in the test with HA-YY1 is “could interact with HA-YY1”. As for “GST-EZH2 (465–545): GST fusion of EZH2 residues 465–545”, in the test with His×6-YY1, the “interaction with His×6-YY1 in GST pull-down” value is given as “could also pull down His×6-YY1”.

The values are drawn from PMC8156467, “Disruption of YY1-EZH2 Interaction Using Synthetic Peptides Inhibits Breast Cancer Development” (Cancers, 2021).
